Tests used:
[1] = Dog pharmacokinetic study, HM04 free base vs HM04 fumarate salt (Example 9); type: in vivo, male Beagle dogs
Method: The pharmacokinetics of HM04 in plasma of male Beagle dogs dosed with a single oral administration of 2 mg/kg HM04 formulated in a solution of 10% DMAC, 6% Solutol, and 84% PBS using either the HM04 free base or HM04 fumarate salt were compared. A comparison of the plasma concentration of HM04 (ng/mL) over time in dogs dosed orally with HM04 free base and HM04 fumarate salt is provided in FIG. 18. Bioavailability was calculated from a dose normalized ratio of the oral mean AUC to the intravenous mean AUC (AUCpo/AUCiv×Doseiv/Dosepo).

[2] = as above; type: in vivo, male Beagle dogs; details: for HM04 plasma concentration: 2 mg/kg oral, mean ± S.D., n=3
[3] = system: ghrelin-induced increase of GH; assay: Ghrelin-induced increase of growth hormone in rats; type: in vivo; details: 30 mg/kg HM04 fumarate salt p.o. 2 hours before 15 μg/kg ghrelin i.v., 15 minutes after ghrelin
Method: Rats were divided into four groups: 1) 1 ml/kg saline plus 10 ml/kg 0.5% CMC p.o. (n=6); 2) 15 μg/kg ghrelin i.v. plus 10 ml/kg 0.5% CMC p.o. (n=6); 3) 30 mg/kg HM04 fumarate salt p.o. 2 hours before 15 μg/kg ghrelin i.v. (n=6); 4) 10 mg/kg ghrelin antagonist R011 i.p. 30 minutes before 15 μg/kg ghrelin i.v. (n=6). Blood was collected as 100 μl samples at time 0 and at 15 minutes after ghrelin injection. Rats were anesthetized with 64.8 mg/kg sodium pentobarbital. A catheter filled with heparinized saline solution was inserted in the left femoral artery for blood collection and fitted with an extension tube, 1-mL sampling syringe, and a 3-way cock to allow excess blood to return.
Plasma levels of growth hormone (GH) were determined using Rat GH ELISA (Millipore, Catalog No. EZRMGH-45K). Measurements were performed in duplicate. […] One-way and two-way ANOVA test was used to compare differences between groups. All values are presented as mean±SEM. One-way ANOVA was performed followed by Turkey's post hoc test where significance was indicated by p values<0.05 or p values<0.01.

[4] = male, Beagle, plasma, 2 mg/kg oral, mean ± S.D., n=3

Structure (SMILES) | HM04 plasma concentration ([1]; 2 mg/kg oral, 0.25 hours, mean ± S.D., n=3) | HM04 plasma concentration ([1]; 2 mg/kg oral, 0.50 hours, mean ± S.D., n=3) | HM04 plasma concentration ([1]; 2 mg/kg oral, 2 hours, mean ± S.D., n=3) | bioavailability ([1]; male, Beagle, plasma, 2 mg/kg oral vs 1 mg/kg intravenous, dose normalized AUC ratio) | AUC(0-t) [1, 4] | Cmax [1, 4] | Tmax [1, 4] | HM04 plasma concentration ([2]; 1 hour) | HM04 plasma concentration ([2]; 4 hours) | HM04 plasma concentration ([2]; 8 hours) | HM04 plasma concentration ([2]; 24 hours) | AUC ([2]; male, Beagle, plasma, 1 mg/kg intravenous, three dogs, read-out: mean AUC following intravenous administration) | inhibition of ghrelin-induced increase of GH [3]
CN1CCC(N(C)C(=O)N[C@H](c2ccc(-c3cnccn3)c(Cl)c2Cl)C(F)(F)F)CC1.O=C(O)/C=C/C(=O)O [HM04 fumarate salt, (R)-3-(1-(2,3-dichloro-4-(pyrazin-2-yl)phenyl)-2,2,2-trifluoroethyl)-1-methyl-1-(1-methylpiperidin-4-yl)urea fumarate salt] | 86.6 ± 32.2 ng/mL | 182.4 ± 24.1 ng/mL | 219.0 ± 63.6 ng/mL | 82.3 ± 36.8% | 1850 ± 828 ng·h/mL | 230 ± 57.1 ng/mL | 1.33 ± 0.58 h | 227.4 ± 52.2 ng/mL | 152.9 ± 56.9 ng/mL | 70.2 ± 41.0 ng/mL | 13.1 ± 13.2 ng/mL | 1130 ± 364 ng·h/mL | 
CN1CCC(N(C)C(=O)N[C@H](c2ccc(-c3cnccn3)c(Cl)c2Cl)C(F)(F)F)CC1 [HM04, (R)-3-(1-(2,3-dichloro-4-(pyrazin-2-yl)phenyl)-2,2,2-trifluoroethyl)-1-methyl-1-(1-methylpiperidin-4-yl)urea] |  |  |  |  |  |  |  |  |  |  |  |  | 35%

From patent publication US11299472B2, “Fumarate salt of (R)-3-(1-(2,3-dichloro-4-(pyrazin-2-yl)phenyl)-2,2,2- trifluoroethyl)-1-methyl-1-(1-methylpiperidin-4-yl) urea, methods of preparation, and uses thereof” (Helsinn Healthcare SA, priority 2017, dated 2022)
